Assay [1] concerns the target T1, FAK (Homo sapiens, UniProt Q05397). As to the kind of experiment: biochemical.
Assay [2] deals with T1, FAK. Kind of assay: Cell-based capture ELISA for inhibition of FAK autophosphorylation [pY397] in MiaPaCa2 cells. On the procedure: Cell-Based Assays for Inhibition of FAK Autophosphorylation: MiaPaCa2 and U87MG
ELISA kit from Invitrogen (KHO0441).
Reagents Provided in Biosource FAK [pY397]
The cells were then suspended in cell assay medium.
(An ELISA detects its analyte on a solid surface through an enzyme-linked reagent.)

Assay [3] deals with T1, FAK. As to the kind of experiment: Biochemical HTRF (FRET) assay of FAK kinase activity. Particulars: 100 uM ATP; biotinylated PGT substrate; read-out: Mean FAK Biochem FRET IC50 (100 uM ATP). The protocol: Biochemical HTRF (FRET) Assay Protocol
The ability of compounds to inhibit the kinase activity of recombinant FAK enzyme was determined by a HTRF (FRET) assay using Biotinylated PGT (B*PGT) as a peptide substrate. […] The reaction is stopped after 1 h and phosphotyrosine content of Biotin*PGT is measured using anti-phosphotyrosine specific Mab label with Eu3+-cryptate (Cisbio) and XL665 labeled streptavidin (Cisbio) by Homogeneous Time-Resolved Fluorescence (HTRF) method.
The Stock Reagents used are as follows:
Enzyme Buffer Reaction Buffer plus 0.03% BSA.
Development Buffer: 1 part 200 mM EDTA/50 mM Tris-HCl pH 7.4; 2 parts 1M KF; 0.07% BSA.
Assay Protocol: The compounds were serially diluted from 10 uM to […] (1:5 dil, 10 points) in kinase buffer (1×) containing 3% DMSO and added 5 uL to each well of a 384-well plate except negative and positive control wells. Only DMSO was added to positive and negative control wells. For negative control wells, no ATP was added but only 5 uL of B*PGT was added. B*PGT (final conc 7.5 ng/well) and ATP (final conc 100 uM) was added in 5 uL to all wells except negative control wells. Reaction was started by adding FAK enzyme (final conc 0.2 ng/well) in 5 ul of enzyme buffer per well and incubated at RT for 1 h. Phospho-tyrosine content of B*BGT was detected by adding PT66-Cryptate (1:100 dil) and XL665 conjugated streptavidin (1:100 dil) to each well in 7.5 uL development buffer and incubating for 1 h at RT. The plate was read on Victor machine
A general note: In TR-FRET formats the signal depends on donor and acceptor labels being close together.

In assay [4] the target is T1, FAK. As to the kind of experiment: Cell-based capture ELISA for inhibition of FAK autophosphorylation [pY397] in U87MG cells. Particulars: Mean FAK Cell Mechanistic IC50 + 50% mP U87MG, + 50% mouse plasma.
Setting [5] is: MIA-PaCa2 cells on fibronectin, 2 h, no plasma, read-out: Mean FAK Cell Mechanistic IC50 MIA-PaCa2.
The mark [6] stands for this setting: MIA-PaCa2 cells, + 50% human plasma, read-out: Mean FAK Cell Mechanistic IC50 + 50% hP MIA-PaCa2.
Where [7] appears, read: MIA-PaCa2 cells, + 50% mouse plasma (Table 2), read-out: Mean FAK Cell Mechanistic IC50 + 50% mP MIA-PaCa2.
The mark [8] stands for this setting: MIA-PaCa2 cells, + 50% mouse plasma (Table 3), read-out: Mean FAK Cell Mechanistic IC50 + 50% mP MIA-PaCa2.

The values that follow come from patent US9096624B2 (OSI Pharmaceuticals, LLC, priority 2009, dated 2015).

T1 sequence (Q05397 whole entry): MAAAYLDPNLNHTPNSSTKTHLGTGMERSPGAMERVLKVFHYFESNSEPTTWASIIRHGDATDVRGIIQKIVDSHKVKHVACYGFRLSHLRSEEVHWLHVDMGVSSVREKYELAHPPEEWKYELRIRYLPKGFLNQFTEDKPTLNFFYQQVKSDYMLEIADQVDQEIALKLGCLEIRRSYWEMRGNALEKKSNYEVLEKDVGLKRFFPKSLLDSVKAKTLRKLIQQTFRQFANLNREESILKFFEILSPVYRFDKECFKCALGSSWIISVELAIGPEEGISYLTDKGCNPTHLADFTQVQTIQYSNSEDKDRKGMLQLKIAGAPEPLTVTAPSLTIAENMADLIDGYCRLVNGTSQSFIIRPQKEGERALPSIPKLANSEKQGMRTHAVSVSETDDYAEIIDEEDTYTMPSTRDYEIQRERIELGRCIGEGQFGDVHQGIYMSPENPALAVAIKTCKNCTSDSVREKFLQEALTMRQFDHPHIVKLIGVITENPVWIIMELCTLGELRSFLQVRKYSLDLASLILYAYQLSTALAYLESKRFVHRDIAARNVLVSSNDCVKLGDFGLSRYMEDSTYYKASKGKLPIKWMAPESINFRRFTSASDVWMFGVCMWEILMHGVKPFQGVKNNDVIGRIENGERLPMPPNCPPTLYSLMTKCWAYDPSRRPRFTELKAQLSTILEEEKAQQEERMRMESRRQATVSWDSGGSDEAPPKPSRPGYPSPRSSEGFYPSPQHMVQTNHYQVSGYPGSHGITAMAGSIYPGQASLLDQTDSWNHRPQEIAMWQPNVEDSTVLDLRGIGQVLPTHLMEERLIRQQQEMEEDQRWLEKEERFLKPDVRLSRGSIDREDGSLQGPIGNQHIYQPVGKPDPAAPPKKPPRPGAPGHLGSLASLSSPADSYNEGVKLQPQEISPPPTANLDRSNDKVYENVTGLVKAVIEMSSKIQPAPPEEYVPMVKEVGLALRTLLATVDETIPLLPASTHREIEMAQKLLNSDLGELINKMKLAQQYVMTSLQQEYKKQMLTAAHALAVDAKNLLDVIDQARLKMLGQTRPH

Regarding `CCOP(=O)(Cc1ccc(Nc2ncc(C(F)(F)F)c(NCc3cccnc3N(C)S(C)(=O)=O)n2)cc1)OCC` [Example 1, diethyl [4-({4-[({2-[methyl(methylsulfonyl)amino]pyridin-3-yl}methyl)amino]-5-(trifluoromethyl)pyrimidin-2-yl}amino)benzyl]phosphonate], the concentration for half-maximal inhibition (IC50) against FAK [1], at FAK [2] (setting [5]), at FAK [2] (setting [6]) and on FAK [3] was under 1000 nM throughout.

As for `CCOP(=O)(OCC)c1ccc(Nc2ncc(C(F)(F)F)c(NCc3cccnc3N(C)S(C)(=O)=O)n2)cc1` [Example 2, Diethyl [4-({4-[({2-[methyl(methylsulfonyl)amino]pyridin-3-yl}methyl)amino]-5-(trifluoromethyl)pyrimidin-2-yl}amino)phenyl]phosphonate], the half-maximal inhibitory concentration (IC50) (commonly the concentration needed to halve the response being measured) on FAK [3] lay within 1000 to 10000 nM.

Take `CCOP(=O)(Cc1cccc(Nc2ncc(C(F)(F)F)c(NCc3cccnc3N(C)S(C)(=O)=O)n2)c1)OCC` [Example 4, Diethyl [3-({4-[({2-[methyl(methylsulfonyl)amino]pyridin-3-yl}methyl)amino]-5-(trifluoromethyl)pyrimidin-2-yl}amino)benzyl]phosphonate]: the IC50 was under 1000 nM against FAK [1], 1000 to 10000 nM on FAK [2] (setting [5]), 1000 to 10000 nM at FAK [2] (setting [6]) and 1000 to 10000 nM at FAK [3].

Take `CCOP(=O)(OCC)C(C)c1ccc(Nc2ncc(C(F)(F)F)c(NCc3cccnc3N(C)S(C)(=O)=O)n2)cc1` (stereo not drawn) [Example 5, Diethyl {1-[4-({4-[({2-[methyl(methylsulfonyl)amino]pyridin-3-yl}methyl)amino]-5-(trifluoromethyl)pyrimidin-2-yl}amino)phenyl]ethyl}phosphonate]: the IC50 at FAK [2] (setting [5]), at FAK [2] (setting [6]) and on FAK [3] was under 1000 nM each time.

Consider `CN(c1ncccc1CNc1nc(Nc2ccc(P(=O)(O)O)cc2)ncc1C(F)(F)F)S(C)(=O)=O` [Example 6, [4-({4-[({2-[Methyl(methylsulfonyl)amino]pyridin-3-yl}methyl)amino]-5-(trifluoromethyl)pyrimidin-2-yl}amino)phenyl]phosphonic acid], for which the IC50 at FAK [1] was under 1000 nM; on FAK [2] (setting [5]), 1000 to 10000 nM; on FAK [3] it was under 1000 nM.

Consider `CCOP(=O)(OCC)C(C)(C)c1ccc(Nc2ncc(C(F)(F)F)c(NCc3cccnc3N(C)S(C)(=O)=O)n2)cc1` [Example 7], for which the IC50 at FAK [2] (setting [5]), at FAK [2] (setting [6]) and on FAK [3] was under 1000 nM throughout.

Take `CC(C)OP(=O)(Cc1ccc(Nc2ncc(C(F)(F)F)c(NCc3cccnc3N(C)S(C)(=O)=O)n2)cc1)OC(C)C` [Example 27, dipropan-2-yl [4-({4-[({2-[methyl(methylsulfonyl)amino]pyridin-3-yl}methyl)amino]-5-(trifluoromethyl)pyrimidin-2-yl}amino)benzyl]phosphonate]: the IC50 at FAK [2] (setting [5]), at FAK [2] (setting [6]), on FAK [2] (setting [7]) and at FAK [3] was 1000 to 10000 nM each time.

Consider `CN(c1ncccc1CNc1nc(Nc2ccc(CP(=O)(O)O)cc2)ncc1C(F)(F)F)S(C)(=O)=O` [Example 41, [4-({4-[({2-[Methyl(methylsulfonyl)amino]pyridin-3-yl}methyl)amino]-5-(trifluoromethyl)pyrimidin-2-yl}amino)benzyl]phosphonic acid], for which the IC50 against FAK [1] was under 1000 nM; at FAK [2] (setting [5]), 1000 to 10000 nM; on FAK [2] (setting [6]), 1000 to 10000 nM; on FAK [2] (setting [7]), 1000 to 10000 nM; at FAK [3], 1000 to 10000 nM.

As to `CCOP(C)(=O)Cc1cccc(Nc2ncc(C(F)(F)F)c(NCc3cccnc3N(C)S(C)(=O)=O)n2)c1` (stereo not drawn) [Example 46, Ethyl methyl[3-({4-[({2-[methyl(methylsulfonyl)amino]pyridin-3-yl}methyl)amino]-5-(trifluoromethyl)pyrimidin-2-yl}amino)benzyl]phosphinate], the 50% inhibitory concentration (IC50) on FAK [2] (setting [5]) is under 1000 nM; at FAK [2] (setting [6]) it was under 1000 nM; at FAK [3], 1000 to 10000 nM.

Take `CCOP(=O)(Cc1ccc(Nc2ncc(C(F)(F)F)c(Nc3cccc4[nH]cc(C)c(=O)c34)n2)c(OC)c1)OCC` [Example 204, Diethyl [3-methoxy-4-({4-[(3-methyl-4-oxo-1,4-dihydroquinolin-5-yl)amino]-5-(trifluoromethyl)pyrimidin-2-yl}amino)benzyl]phosphonate]: the IC50 at FAK [1], on FAK [4] and on FAK [2] (setting [8]) was under 1000 nM throughout.

As for `CNC(=O)c1ccccc1Nc1nc(Nc2ccc(CP(C)(=O)OCCOC)cc2OC)ncc1C(F)(F)F` (stereo not drawn) [Example 216, 2-Methoxyethyl (3-methoxy-4-{[4-{[2-(methylcarbamoyl)phenyl]amino}-5-(trifluoromethyl)pyrimidin-2-yl]amino}benzyl)methylphosphinate], the concentration for half-maximal inhibition (IC50) on FAK [1], at FAK [4] and at FAK [2] (setting [8]) was under 1000 nM throughout.

Take `CCOP(=O)(Cc1ccc(Nc2ncc(C(F)(F)F)c(Nc3cccnc3C(=O)NC)n2)c(OC)c1)OCC` [Example 231, Diethyl (3-methoxy-4-{[4-{[2-(methylcarbamoyl)pyridin-3-yl]amino}-5-(trifluoromethyl)pyrimidin-2-yl]amino}benzyl)phosphonate]: the IC50 at FAK [1], on FAK [4] and at FAK [2] (setting [8]) was under 1000 nM each time.

Turning to `CCOP(=O)(Cc1ccc(Nc2ncc(C(F)(F)F)c(Nc3ccc(C4CCC(N(C)CC)CC4)c4c3C(=O)N(C)C4)n2)c(OC)c1)OCC` (stereo not drawn) [Example 236, Diethyl [4-({4-[(7-{4-[ethyl(methyl)amino]cyclohexyl}-2-methyl-3-oxo-2,3-dihydro-1H-isoindol-4-yl)amino]-5-(trifluoromethyl)pyrimidin-2-yl}amino)-3-methoxybenzyl]phosphonate], the concentration for half-maximal inhibition (IC50) on FAK [1], at FAK [4] and on FAK [2] (setting [8]) was under 1000 nM throughout.

On to `CCOP(=O)(Cc1ccc(Nc2ncc(C(F)(F)F)c(Nc3ccc([C@H]4CC[C@H](O)CC4)c4c3C(=O)N(C)C4)n2)cn1)OCC` [Example 260, Diethyl [(5-{[4-{[7-(trans-4-hydroxycyclohexyl)-2-methyl-3-oxo-2,3-dihydro-1H-isoindol-4-yl]amino}-5-(trifluoromethyl)pyrimidin-2-yl]amino}pyridin-2-yl)methyl]phosphonate], for which the IC50 against FAK [1], at FAK [4] and at FAK [2] (setting [8]) was under 1000 nM each time.

Take `CCOP(=O)(Cc1ccc(Nc2ncc(C(F)(F)F)c(Nc3ccc([C@H]4CC[C@H](O)CC4)c4c3C(=O)N(C)C4)n2)nc1)OCC` [Example 309, Diethyl [(6-{[4-{[7-(trans-4-hydroxycyclohexyl)-2-methyl-3-oxo-2,3-dihydro-1H-isoindol-4-yl]amino}-5-(trifluoromethyl)pyrimidin-2-yl]amino}pyridin-3-yl)methyl]phosphonate]: the IC50 against FAK [1], at FAK [4] and at FAK [2] (setting [8]) was under 1000 nM throughout.
